Experimental data reported in a melting point compilation (Tetko et al.; mined from patent text by program, amines drawn as free bases though some values may be those of a salt).

Compared with `Cn1c(CC(=O)NC2CN3CCC2CC3)cc2ccccc21` (stereo not given), `O[C@@H]1COC[C@H]1Oc1nc(N2CCNCC2)nc2ccccc12` (relative stereo) is lower in melting point: 185 to 187 °C for the first, 148 to 154 °C for the second.

`CCCCCCCCOc1ccc(-c2nnn[nH]2)c(O)c1` and `CCCCc1nn2c(-c3ccccc3)cnc2n1Cc1ccc(-c2ccccc2-c2nnn[nH]2)cc1` cannot be ordered by melting point: 142 to 146 °C for the first, over 70 °C for the second.

First: CN(c1nc(-c2cc3ccccc3[nH]c2=O)cs1)S(=O)(=O)c1cn(C)cn1
Second: CNC(=O)c1ccccc1Nc1nc(Nc2c(OC)ccc3c2CCOC(=O)N3C)ncc1Cl
The melting point of the first is higher: over 300 °C for the first, 160 °C for the second.

First: CN(C)[C@H]1CC[C@@H](C(=O)N2CCC(c3[nH]nc4c3C(=O)c3c(NC(=O)NN5CCOCC5)cccc3-4)CC2)CC1
Second: Cc1ccc(OC2CCN(C(=O)C(=O)Nc3ccc4c(c3)OCC(=O)N4)CC2)cc1
The melting point of the first is lower: 123 to 125 °C for the first, 226 to 228 °C for the second.

First: CCCc1nc2c(N)nc3ccccc3c2n1CC1(O)CCN(C)CC1
Second: Cc1nc2c(N)nc3ccccc3c2n1Cc1ccccc1
The melting point of the first is lower: 241 to 242 °C for the first, 279 to 282 °C for the second.

First: C=C(CC1(CC)C(=O)CCC1=O)C1=CCCc2cc(OC)ccc21
Second: COc1ccc(C2(C(=O)O)CCC(=O)CC2)cc1
The melting point of the first is lower: 100 to 125 °C for the first, 154 to 156 °C for the second.

Compared with `CCC(C(c1ccc(OC)cc1)c1ccc(C(C)(C)C)cc1)[N+](=O)[O-]` (stereo not given), `Cc1ccc(C(NCC(=O)Nc2c(C(C)C)cccc2C(C)C)c2ccccc2)cc1` (stereo not given) is higher in melting point: 114 to 116 °C for the first, 165 to 166 °C for the second.

Compared with `CC(C)(C)OC(=O)N[C@@H](CC(=O)OCc1ccccc1)C(=O)NCCc1ccc(OCC(=O)OCc2ccccc2)cc1`, `CC(C)(C)OC(=O)Nc1ccc(-c2ccc(-c3ccccc3)cc2)cc1NC(=O)CC(=O)c1cccc(C#N)c1` is higher in melting point: 178 to 180 °C for the first, 214 to 216 °C for the second.

First: CCOC(=O)c1cnn(-c2ccc(OCC3CC3)c(C#N)c2)c1
Second: CCOc1ccc(Br)c(O)c1C(=O)NCC1CCCN1CC (stereo not given)
The melting point of the first is higher: 147 to 149 °C for the first, 74 to 76 °C for the second.

First: CCc1ncnc(N[C@H]2CC[C@@H](C(C)(C)O)CC2)c1Cl
Second: CN1CCC(OC2c3ccccc3CCn3cc(-c4ccc(NC(=O)C(C)(C)C)cc4)nc32)CC1 (stereo not given)
The melting point of the first is lower: 75 to 76 °C for the first, 120 °C for the second.

Compared with `CCOC(=O)c1c(Cn2cncn2)nc2cc(OC)c(OC)cc2c1-c1ccc(OC)cc1`, `COc1ccc(S(=O)(=O)N2CCc3cccc(-c4cc(OC)c(OC)c(OC)c4)c32)cc1` is higher in melting point: 150 to 151 °C for the first, 202 to 205 °C for the second.

First: CC(=O)SC1(C(=O)O)CCCC1
Second: COCCOC[C@H](CC1(C(=O)N[C@H]2CC[C@@H](C(=O)O)CC2)CCCC1)C(=O)O
The melting point of the first is higher: 120 to 122 °C for the first, 108 °C for the second.

Compared with `CCN(CC)CCn1c2ccccc2c(=NNC(N)=S)c2ccccc21`, `Cc1ccc2sc(-c3ccccc3)c(N(C)C)c2c1` is lower in melting point: 154 to 156 °C for the first, 89 to 92 °C for the second.

First: CC(C)(C)OC(=O)N1CCc2ccc(Nc3nc4c(-c5cc(C(F)(F)F)ccc5Cl)cccn4n3)cc2CC1
Second: CC(C)n1nc(-c2sc(NC(=O)c3cc(C(F)(F)F)cc(C(F)(F)F)c3)nc2-c2ccccc2)ccc1=O
The melting point of the first is lower: 88 to 89 °C for the first, 207 to 208 °C for the second.

First: O=C1CC[C@@H](c2ccccc2)[C@H](c2ccccc2)N1CO (relative stereo)
Second: CN(C)C=C(C(=O)C(=O)c1ccccc1C(=O)O)c1ccccc1
The melting point of the first is lower: 127 to 129 °C for the first, 153 °C for the second.

First: CC(=O)Nc1nc(C)c(S(=O)(=O)n2c(CCCC(=O)O)cc3cc(Cl)ccc32)s1
Second: CNC(=O)C1CC2(CCN(CCCC(=O)c3ccc(F)cc3)C2)c2ccc(Cl)cc21 (stereo not given)
The melting point of the first is higher: 231 to 233 °C for the first, 151 to 153 °C for the second.

First: Nc1cc2[nH]c(=O)[nH]c2c2ccccc12
Second: C[C@@H]1CN2C(=O)c3ccccc3[C@@](O)(c3ccc(F)cc3)C2=N1
The melting point of the first is higher: 295 to 296 °C for the first, 229 to 232 °C for the second.

Compared with `O=C(O)CCC(=O)Nc1ccc(Nc2ccccc2)cc1`, `N=C(N)NC(=O)OCc1ccccc1` is lower in melting point: 175 to 176 °C for the first, 120 to 122 °C for the second.

Compared with `CCCCSC(=NC(C)=O)Nc1c(Cl)cccc1Cl`, `CCOC(=O)c1cnc2c(NC(=O)c3c(Cl)cccc3Cl)cccc2c1CSc1ncc[nH]1` is higher in melting point: 84 to 89 °C for the first, 120 to 123 °C for the second.

First: Cc1cnn(CC(=O)O)c1OCCCc1cn(-c2ccc(C(F)(F)F)cn2)nc1C(C)C
Second: O=C(O)c1sc(-c2ccc(C(F)(F)F)cc2)nc1CO
The melting point of the first is lower: 123 to 124 °C for the first, 250 to 252 °C for the second.

Compared with `CC1(C)Cc2ccccc2C=[N+]1[O-]`, `CC(C)NC(C(N)=S)c1ccccc1` (stereo not given) is higher in melting point: 70 to 72 °C for the first, 98.6 °C for the second.

Compared with `COc1cc2cc3c(Nc4ccc(Sc5nccn5C)c(Cl)c4)c(C#N)cnc3cc2cc1OCCn1nccn1`, `COc1cc(CCCC2OC(=O)NC2=O)ccc1OCc1csc(-c2ccccc2)n1` (stereo not given) is lower in melting point: 235 to 237 °C for the first, 96 to 97 °C for the second.

Compared with `O=CCc1c(O)c(Br)cc(F)c1F`, `Cc1cc(O)ccc1-c1nn(CC(C)C)c2c(F)cccc12` is higher in melting point: 46.5 to 48 °C for the first, 126 to 128 °C for the second.

First: COc1c(Cl)cc(NC(=O)OCCCl)c(OC)c1NC(=O)OCCCl
Second: COc1ccc(C=CC(=O)c2cccc(OC)c2OC)cc1F
The melting point of the first is higher: 87 °C for the first, 79.3 to 80.2 °C for the second.

First: CCCc1nc(S(=O)(=O)N(c2c(Cl)cccc2Cl)S(=O)(=O)c2nc(CCC)n(-c3ccccc3)n2)nn1-c1ccccc1
Second: CC(C)c1nc(-c2ccccc2)c(C(C)C)c(-c2ccc(F)cc2)c1C=O
The melting point of the first is higher: 262 to 264 °C for the first, 159 to 160 °C for the second.

Compared with `COc1cc(OC)c2c(=O)[nH]c(-c3cc(C)c(O)c(C)c3)nc2n1`, `COC(=O)c1ccc2[nH]c(S)nc2n1` is lower in melting point: 297 to 299 °C for the first, 233 to 234 °C for the second.

First: COc1ccc(C(CN(C)C(=O)/C=C/c2cccnc2)=NO)cc1OC
Second: Cc1ccc2cccnc2c1C(=O)Nc1nnn[nH]1
The melting point of the first is lower: 172 to 173 °C for the first, 285 to 287 °C for the second.

`Cc1c(-c2ccccc2)c(N2CC[C@H](N(C)C)C2)c2oc(-c3cnn(C)c3)nc2c1C#N` and `N#Cc1c(N2CCc3ccccc3CC2)nc2n(c1=O)CCN2` cannot be ordered by melting point: 214 to 222 °C for the first, over 200 °C for the second.

First: c1ccc2cc(OCCCNN3CCCCC3)ccc2c1
Second: CCc1c(Sc2ccccc2)n(CC2CC=CC2)c(=O)[nH]c1=O
The melting point of the first is lower: 78 °C for the first, 112 to 113 °C for the second.

First: O=C(O)c1cnn2ccc(-c3ccc(Cl)cc3)nc12
Second: Nc1cccc(-c2nc3ncccc3o2)c1
The melting point of the first is higher: 309 to 311 °C for the first, 179 to 180 °C for the second.

First: C[C@@H]1[C@H](NC(=O)C(=O)c2csc(N)n2)C(=O)N1S(=O)(=O)O
Second: CC1(C)Oc2ccc(OCCCC(F)(F)F)cc2[C@H](NS(C)(=O)=O)[C@H]1O
The melting point of the first is higher: over 300 °C for the first, 186 °C for the second.

First: COc1cccc2c(=O)c3c(OCC4CS4)cc(OCC4CS4)cc3oc12 (stereo not given)
Second: Cc1nnc(-c2ccc3occ(-c4cc(C(F)(F)F)ccc4F)c3c2)o1
The melting point of the first is higher: 240 °C for the first, 178 to 179 °C for the second.

First: O=C1COC2(CCN(CCC3COc4ccccc4O3)CC2)CN1 (stereo not given)
Second: Cc1cc(C2CC(C)(C)CC(C)(C)C2(O)C#C[Si](C)(C)C)ccc1F (stereo not given)
The melting point of the first is higher: 139 to 140 °C for the first, 76 to 78 °C for the second.

Compared with `CCOC(CNC(=S)Nc1nccs1)OCC`, `CC1(C)CCC(C)(C)c2c(O)ccc(O)c21` is lower in melting point: 118 to 119 °C for the first, 114 °C for the second.

First: C=Cc1ccc(OC(=O)C(Cl)(Cl)Cl)cc1
Second: CC1(C)C(C=C2CC2(F)F)C1C(=O)O (stereo not given)
The melting point of the first is lower: 37 to 39 °C for the first, 78.9 °C for the second.
